# Experiments:
# [1] = tested on: synovial membrane-derived synthetic tissue; test: Collagen content measurement (hydroxyproline) of synovial membrane-derived synthetic tissue; format: cell-based, pig
# Method: In order to determine the collagen concentration, the collagen content was measured. […] The amount of produced collagen is substantially proportional to the time period of culture (FIG. 8). Next, it was determined whether or not collagen (extracellular matrix) is sufficiently secreted after implantation of a synthetic tissue of the present invention. The following protocol was used. Culture periods: 3 days, 7 days, 14 days, and 21 days, Concentrations of ascorbic acid 2-phosphate: 0 mM, 0.1 mM, 1 mM, and 5 mM Under the above-described conditions, a synovial membrane-derived synthetic tissue was produced. 6 N HCl was added to culture medium for the synthetic tissue, followed by hydrolysis at 105° C. for 18 hours. The medium was oxidized with chloramine T. Thereafter, the synthetic tissue was subjected to color development using Ehrlich's Reagent Solution (2 g of p-dimethylamino-benzaldehyde+3 ml of 60% perchloric acid; isopropanol was diluted at 3:13), followed by measurement of absorbance.
# [2] = tested on: synovial cells; test: HE staining of synthetic tissue produced from synovial cells; format: cell-based, pig
# Method: Synovial cells were collected from a knee joint of a pig (LWD ternary hybrid, 2-3 months old upon removal of cells), followed by treatment with collagenase. The cells were cultured and subcultured in 10% FBS-DMEM medium (FBS was obtained from HyClone, DMEM was obtained from GIBCO). It has been reported that 10th passage synovial cells still have pluripotency. Although cells of 10 or less passages were used in this example, cells of more than 10 passages may be used depending on the application. Autotransplantation was performed for humans, where a sufficient number of cells were used and the cells were cultured for a short period of time so as to reduce the risk of infection or the like. Synovial cells (4.0×10^6) were cultured in 2 ml of 10% FBS-DMEM medium in a 35-mm dish, a 60-mm dish, or 100-mm dish (BD Biosciences, culture dish and multiwell cell culture plate). In this case, ascorbic acid was added. The dishes, the ascorbic acid concentrations, and the cell concentration are described below. Ascorbic acid 2-phosphate: 0 mM, 0.1 mM, 0.5 mM; 1 mM, 2 mM, and 5 mM Medium was exchanged two times per week until the end of a predetermined culture period. At the end of the culture period, a cell sheet was detached from the dish by pipetting circumferentially around the dish using a 100-μl pipetteman. After detachment, the cell sheet was made as flat as possible by lightly shaking the dish. […]
# [3] = tested on: synovium-derived synthetic tissue; test: Influence of actin regulatory agents on contraction of a synthetic tissue; format: cell-based; details: dihydrocytochalasin B 3 μM, Y27632 10 μM; after detachment
# Method: Dihydrocytochalasin B and Y27632 (Yamanouchi Pharmaceutical), which are known to have an actin depolymerizing function, were used to study their influence on the contraction of a synthetic tissue.
# A synovium-derived synthetic tissue was produced by monolayer culture. The tissue was detached from a culture dish. The tissue was cultured in medium in the presence of dihydrocytochalasin B (3 μM) and Y27632 (10 μM). The transition of the radius of the tissue is shown every unit culture time in FIG. 40. […] Dihydrocytochalasin B and Y27632 are representative exemplary actin polymerization inhibitors. It will be understood by those skilled in the art that other actin polymerization inhibitors, such as cytochalasin D and the like, have a similar function.
# [4] = tested on: monolayer culture cells; test: Conditions for detachment during production of a synthetic tissue; format: cell-based
# Method: In this example, it was determined whether or not chemical detachment can be used instead of physical detachment (mechanical detachment (e.g., pipetting, etc.)) during the production of the synthetic tissue of the present invention.
# Cell density: 4×10^4 cells/cm^2
# Conditions: CO2 5%, air 95%, 37° C.
# Medium: DMEM/F12 (FBS 10%) supplemented with 10 ng/ml TGFβ1.
# This medium was used to conduct culture under the conditions described in Examples 14 and 15 to produce a synthetic tissue.
# Medium: DMEM (GIBCO), FBS (HyClone) 10%, ITS+Premix (insulin, transferrin, selenious acid) (BD Biosciences) 6.25 μg/ml, dexamethasone (Sigma) 10^−7 M, ascorbic acid (WAKO) 50 μg/ml, pyrubic acid (SIGMA) 100 μg/ml.
compound,measurement,setting,value
O=C1O[C@H]([C@@H](O)CO)C(O)=C1OP(=O)(O)O [ascorbic acid 2-phosphate],"quantities of collagen produced, dependence on concentration","[1]; 0, 0.1, 1 and 5 mM, culture 3 to 21 days",0 mM<<5 mM<1 mM≦0.1 mM
same,production of collagen (amount of hydroxyproline),[1]; 0.1 mM or more added,significantly promoted
same,collagene content in the synthetic tissue,"[1]; 0.1 mM or more added, any of the culture periods",significantly increased
same,formation of an extracellular matrix,[2]; 0.1 mM or more,promoted
same,Eosin staining of the synthetic tissue,[2]; concentration of more than 0.1 mM,more intense
C[C@@H](N)[C@H]1CC[C@H](C(=O)Nc2ccncc2)CC1 [Y27632],contraction of the synthetic tissue (radius over culture time),[3],inhibited
"C=C1[C@@H](C)[C@H]2[C@H](Cc3ccccc3)NC(=O)[C@]23OC(=O)CC[C@H](O)CCC[C@@H](C)C/C=C/[C@H]3[C@@H]1O [dihydrocytochalasin B, Dihydrocytochalasin B]",contraction of the synthetic tissue (radius over culture time),[3],inhibited
"TGF-β: transforming growth factor, 10 ng/ml TGFβ1 in medium",detachment of monolayer culture cells from the culture dish,[4]; 10 ng/ml TGFβ1 in DMEM/F12 (FBS 10%),more easily detached
same,effect on culture cells,"[4]; added in monolayer culture, no physical stimulus",has the effect of detaching culture cells
